Measurements reported in patent US20230203043A1, “NOVEL IMIDAZOPYRAZINE DERIVATIVES” (Hoffmann-La Roche Inc., priority 2020, published 2023).
Structures can show the parent of a compound that is named as a salt. Where two headings read alike, the source gives them in different places.

Tested on: Acinetobacter baumannii ATCC17961
Test: Antimicrobial susceptibility testing: 90% growth inhibitory concentration (IC90) determination in Iso-Sensitest broth, OD600 growth
Type: cell-based
Conditions: Acinetobacter baumannii, ATCC17961, 16 h
How it was run: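 Twofold compound dilutions (e.g. 50 to 0.097 μM final) in Iso-Sensitest broth with ~5×10^(5) CFU/ml, 35±2 °C. OD600 read every 20 min over 16 h; IC90 from growth inhibition during logarithmic phase.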

[1] = strain ATCC 17961, OD600 growth over 16 h, read-out: A. baumannii ATCC 17961 IC90
[2] = read-out: A. baumannii ATCC 17961 IC90 (uM), strain ATCC 17961, OD600 growth over 16 h

SMILES | IC90 [1] | IC90 [2]
Cc1cc(Nc2nccn3c(-c4cn(CC5CC5)nc4C(F)(F)F)cnc23)ccc1S(C)(=O)=NCCCN (stereo not drawn) [Example 596, N-[4-[N-(3-aminopropyl)-S-methyl-sulfonimidoyl]-3-methyl-phenyl]-3-[1-(cyclopropylmethyl)-3-(trifluoromethyl)pyrazol-4-yl]imidazo[1,2-α]pyrazin-8-amine formate] | 0.131 µM | –
Cc1cc(Nc2nccn3c(-c4cn(CC#N)nc4C(F)(F)F)cnc23)ccc1S(C)(=O)=NCCCN (stereo not drawn) [Example 597, 2-[4-[8-[4-[N-(3-aminopropyl)-S-methyl-sulfonimidoyl]-3-methyl-anilino]imidazo[1,2-a]pyrazin-3-yl]-3-(trifluoromethyl)pyrazol-1-yl]acetonitrile] | 0.179 µM | –
NCCNC(=O)CN1CCN(C(=O)c2ccc(Nc3nccn4c(-c5cn(CC(F)F)nc5C(F)(F)F)cnc34)cc2Cl)CC1 [Example 598, N-(2-aminoethyl)-2-(4-(2-chloro-4-((3-(1-(2,2-difluoroethyl)-3-(trifluoromethyl)-1H-pyrazol-4-yl)imidazo[1,2-a]pyrazin-8-yl)amino)benzoyl)piperazin-1-yl)acetamide formate] | – | 0.359 µM
O=C(CN1CCN(C(=O)c2ccc(Nc3nccn4c(-c5cn(CC(F)F)nc5C(F)(F)F)cnc34)cc2Cl)CC1)NC1CNC1 [Example 599, N-(azetidin-3-yl)-2-(4-(2-chloro-4-((3-(1-(2,2-difluoroethyl)-3-(trifluoromethyl)-1H-pyrazol-4-yl)imidazo[1,2-a]pyrazin-8-yl)amino)benzoyl)piperazin-1-yl)acetamide formate] | – | 0.522 µM
O=C(CN1CCN(C(=O)c2ccc(Nc3nccn4c(-c5cn(CC(F)F)nc5C(F)(F)F)cnc34)cc2Cl)CC1)N[C@H]1CCNC1 [Example 600, (S)-2-(4-(2-chloro-4-((3-(1-(2,2-difluoroethyl)-3-(trifluoromethyl)-1H-pyrazol-4-yl)imidazo[1,2-a]pyrazin-8-yl)amino)benzoyl)piperazin-1-yl)-N-(pyrrolidin-3-yl) acetamide formate] | 0.517 µM | –
O=C(CN1CCN(C(=O)c2ccc(Nc3nccn4c(-c5cn(CC(F)F)nc5C(F)(F)F)cnc34)cc2Cl)CC1)N[C@@H]1CCNC1 [Example 601, (R)-2-(4-(2-chloro-4-((3-(1-(2,2-difluoroethyl)-3-(trifluoromethyl)-1H-pyrazol-4-yl)imidazo [1,2-a]pyrazin-8-yl)amino)benzoyl)piperazin-1-yl)-N-(pyrrolidin-3-yl) acetamide formate] | 0.422 µM | –
N#CCn1cc(-c2cnc3c(Nc4ccc(C(=O)N5CCN(CC(=O)NCCN)CC5)c(Cl)c4)nccn23)c(C(F)(F)F)n1 [Example 602, N-(2-aminoethyl)-2-(4-(2-chloro-4-((3-(1-(cyanomethyl)-3-(trifluoromethyl)-1H-pyrazol-4-yl)imidazo[1,2-a]pyrazin-8-yl)amino)benzoyl)piperazin-1-yl)acetamide formate] | – | 0.448 µM
N#CCn1cc(-c2cnc3c(Nc4ccc(C(=O)N5CCN(CC(=O)NCCCN)CC5)c(Cl)c4)nccn23)c(C(F)(F)F)n1 [Example 603, N-(3-aminopropyl)-2-(4-(2-chloro-4-((3-(1-(cyanomethyl)-3-(trifluoromethyl)-1H-pyrazol-4-yl)imidazo[1,2-a]pyrazin-8-yl)amino)benzoyl)piperazin-1-yl)acetamide formate] | – | 0.384 µM
N#CCn1cc(-c2cnc3c(Nc4ccc(C(=O)N5CCN(CC(=O)NC6CNC6)CC5)c(Cl)c4)nccn23)c(C(F)(F)F)n1 [Example 604, N-(azetidin-3-yl)-2-(4-(2-chloro-4-((3-(1-(cyanomethyl)-3-(trifluoromethyl)-1H-pyrazol-4-yl)imidazo[1,2-a]pyrazin-8-yl)amino)benzoyl)piperazin-1-yl)acetamide formate] | – | 0.602 µM
